Measurements reported in patent publication US8937056B2, “Multikinase inhibitors for use in the treatment of cancer” (Eisai R&D Management Co., Ltd., priority 2007, dated 2015).

Tests used:
[1] = test system: Cell lines which carried a B-RAF V600E mutation; assay: Cell growth inhibition in solid cancer cell lines (CellTiter-Glo or methylene blue); assay type: cell-based; settings: 96 hours, B-RAF V600E mutated cell lines very sensitive
Experimental: Compounds 091 and 106, were extensively tested in solid cancer cell lines (shown in FIG. 3 for 18 cell lines for compound 091 and 20 cell lines for compound 106). […] Cell growth was assessed using a CellTiter-Glo® Luminescent Cell Viability Assay (Promega) or a methylene blue assay.

[2] = test system: human hematologic cancer cell lines; assay: Antiproliferative effects in hematologic cancer cell lines (MTT assay); assay type: cell-based; settings: two cell lines derived from B-cell non-Hodgkin's lymphoma, 96 h
Experimental: A study was carried out to investigate anticancer activity of compounds 091 and 106 in a panel of human hematologic cancer cell lines in vitro. Antiproliferative effects of compounds 091 and 106 were evaluated in 7 human cancer cell lines representing several different cancer types of hematologic malignancy. […] Cell growth was assessed using the MTT assay.

[3] = test system: BxPC-3 human pancreatic cancer xenografts; assay: In vivo antitumor activity in BxPC-3 xenografts; set-up: species or system mice; settings: 30 mg/kg i.v., two weekly rounds of q1d×5
Experimental: A study was carried out to investigate anticancer activity of compound 091 in human BxPC-3 pancreatic cancer xenografts. The compound was evaluated against subcutaneous-implanted BxPC-3 human pancreatic cancer xenografts in female athymic mice.
The human pancreatic cancer cell line, BxPC-3-T1 (no mutations on B-RAF and Ras genes) was transplanted subcutaneously into female nude mice. The experiment consisted of 8 mice per group on the first day of treatment. The compound was administered intravenously for two weekly rounds of five daily injections (q1d×5) with a two-day rest period between the rounds. The compound was administered in a vehicle volume of 0.1 mL/10 g of body weight.
The general health of the mice was monitored daily. Tumor dimensions and body weights were recorded twice a week starting on the first day of treatment. Tumor weights were calculated using the equation (l×w^2)/2, where 1 and w refer to the larger and smaller dimensions collected at each measurement. When the mean tumor volume reached 130 mm^3, vehicle (cremophor:ethanol:5% glucose; 1:1:8) or the test compound (15, 30 mg/kg) was administered to mice (8/group).

[4] = test system: Colo205 human colon cancer xenografts; assay: In vivo antitumor activity in Colo205 xenografts; set-up: species or system mice; settings: 30 mg/kg i.v., two weekly rounds of q1d×5
Experimental: A study was carried out to investigate anticancer activity of compounds 091 and 106 in human Colo205 BRAF mutated colon cancer xenografts. The compounds were evaluated against subcutaneous-implanted Colo205 human colon cancer xenografts in female athymic mice.
The human colon cancer cell line, Colo205 which has B-RAF (V600E) mutation was transplanted subcutaneously into female nude mice. The experiment consisted of 6 mice per group on the first day of treatment. The compound was administered intravenously for two weekly rounds of five daily injections (q1d×5) with a two-day rest period between the rounds. Compound 091 was administered in a vehicle volume of 0.1 mL/10 g of body weight.
The general health of the mice was monitored daily. Tumor dimensions and body weights were recorded twice a week starting on the first day of treatment. Tumor weights were calculated using the equation (l×w^2)/2, where 1 and w refer to the larger and smaller dimensions collected at each measurement. When the mean tumor volume reached 140 mm^3, vehicle (cremophor:ethanol:5% glucose; 1:1:8) or the test compound (30 mg/kg) was administered to mice (6/group).

[5] = test system: PANC-1 pancreatic cancer cells; assay: PANC-1 cell growth, alone or in combination with SN-38 (CellTiter-Glo)
Experimental: To determine whether compounds 091 or 106 in combination with SN-38 would enhance the anticancer activity of chemotherapy due to MEKK1 inhibition, PANC-1 human pancreatic cancer cells were examined.
Antiproliferative effects of SN-38 were evaluated in PANC-1 pancreatic cancer cells in combination with compound 091 or 106. Cultured human cancer cells were placed into 96-well plates and grown in the absence or continuous presence of 0.03-1000 nM SN-38 for 96 h with or without 1 μM of test compound. Cell growth was assessed using CellTiter-Glo® Luminescent Cell Viability Assay (Promega). IC50 values were determined as the concentration of a substance which inhibits cell growth by 50% compared to untreated cell populations.

In the case of `CNc1cc(O)c2c(c1)/C=C/C[C@H](O)[C@H](O)C(=O)/C=C\[C@@H](C)[C@H](C)OC2=O` [Compound 091], the “cell growth inhibition, concentration range of sensitivity” value [1] is reported as “low-nM or sub-μM”, the “sensitivity of cell growth” value [2] is reported as “sensitive” and the tumor regression [3] is reported as 50%. The tumor regression [4] was ~70%, the “effect on PANC-1 cancer cell growth, compound alone” value ([5]; 1 μM alone, separate experiments (data not shown)) was “did not affect” and the “effect on cytotoxicity of SN-38” value ([5]; 1 μM test compound in combination with SN-38) was “enhanced”.
